Measured values published in ChEMBL document CHEMBL3865829 (Eur J Med Chem, 2016).

Legend:
[1] = Cytotoxicity against human A549 cells after 72 hrs by MTT assay; assay type: functional, cell-based; details: A549, 72 h
[2] = biological target: Phosphatidylinositol 4,5-bisphosphate 3-kinase catalytic subunit alpha isoform (Homo sapiens, UniProt P42336); experiment: Inhibition of PI3Kalpha (unknown origin) using PIP2 as substrate after 1 hr in presence of ATP by kinase-glo luminescence assay
cells = details: Homo sapiens, HCT-116, 72 h
[3] = Cytotoxicity against human U87MG cells after 72 hrs by MTT assay; assay type: functional, cell-based, U-87MG ATCC; details: U-87 MG
[4] = Cytotoxicity against human MDA-MB-231 cells after 72 hrs by MTT assay; assay type: functional, cell-based; details: MDA-MB-231, 72 h
[5] = Cytotoxicity against human HepG2 cells after 72 hrs by MTT assay; assay type: functional, cell-based; details: HepG2, 72 h
HCT-116 = experiment: Potency index, ratio of GSK2126458 IC50 to compound IC50 for human HCT116 cells; assay type: functional
[6] = Cytotoxicity against human NCI60 cells after 48 hrs by SRB assay; assay type: functional; details: NCI60, 48 h

Chain of Phosphatidylinositol 4,5-bisphosphate 3-kinase catalytic subunit alpha isoform (P42336 whole entry, canonical isoform): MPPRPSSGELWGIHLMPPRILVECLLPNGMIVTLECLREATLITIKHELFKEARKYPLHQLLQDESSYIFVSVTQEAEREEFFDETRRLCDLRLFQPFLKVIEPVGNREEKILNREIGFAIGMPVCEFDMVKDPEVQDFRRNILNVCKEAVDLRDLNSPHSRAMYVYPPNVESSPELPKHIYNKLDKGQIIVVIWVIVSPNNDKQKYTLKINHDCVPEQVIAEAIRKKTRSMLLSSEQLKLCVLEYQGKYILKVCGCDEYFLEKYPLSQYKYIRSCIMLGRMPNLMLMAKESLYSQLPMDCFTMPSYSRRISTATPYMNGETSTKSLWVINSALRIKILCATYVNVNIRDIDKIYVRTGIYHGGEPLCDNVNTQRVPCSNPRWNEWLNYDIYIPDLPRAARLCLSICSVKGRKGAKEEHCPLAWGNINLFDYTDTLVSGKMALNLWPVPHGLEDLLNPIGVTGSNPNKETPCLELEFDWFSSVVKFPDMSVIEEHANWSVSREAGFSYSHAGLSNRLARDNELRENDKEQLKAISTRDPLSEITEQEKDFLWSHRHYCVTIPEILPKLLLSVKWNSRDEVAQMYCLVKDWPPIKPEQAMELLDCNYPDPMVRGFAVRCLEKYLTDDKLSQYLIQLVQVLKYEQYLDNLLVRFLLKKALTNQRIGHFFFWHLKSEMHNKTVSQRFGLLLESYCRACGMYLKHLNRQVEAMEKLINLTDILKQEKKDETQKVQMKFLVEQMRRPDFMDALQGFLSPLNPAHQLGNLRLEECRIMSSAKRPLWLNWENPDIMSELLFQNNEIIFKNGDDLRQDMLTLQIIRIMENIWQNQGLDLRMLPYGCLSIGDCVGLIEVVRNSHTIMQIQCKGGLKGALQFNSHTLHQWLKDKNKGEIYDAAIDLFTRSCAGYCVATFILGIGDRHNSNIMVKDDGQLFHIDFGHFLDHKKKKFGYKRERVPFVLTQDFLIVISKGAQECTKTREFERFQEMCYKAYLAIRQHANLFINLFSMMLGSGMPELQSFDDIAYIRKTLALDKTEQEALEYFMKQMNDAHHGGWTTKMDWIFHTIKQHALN

Row | IC50 [2] | IC50 (cells) | SMILES | IC50 [1] | IC50 [3] | IC50 [4] | IC50 [5] | Ratio IC50 (HCT-116) | GI50 [6]
1 | 0.0011 µM | – | COc1ncc(-c2ccc3nccc(-c4ccc(CN5CCOCC5)cc4)c3c2)cc1NS(=O)(=O)c1ccc(F)cc1F | 0.07 µM | – | – | – | – | –
2 | – | 2.54 µM | COc1ncc(-c2ccc3nccc(-c4ccc(C)cc4)c3c2)cc1NS(=O)(=O)c1ccc(F)cc1F | 1.24 µM | 67 µM | – | – | – | –
3 | – | 0.223 µM | CCN(Cc1ccc(-c2ccnc3ccc(-c4cnc(OC)c(NS(=O)(=O)c5ccc(F)cc5F)c4)cc23)cc1)C1CCCCC1 | 0.0202 µM | 1.45 µM | – | – | – | –
4 | – | 0.033 µM | O=S(=O)(Nc1cc(-c2ccc3nccc(-c4ccc(Cn5cncn5)cc4)c3c2)cnc1Cl)c1ccc(F)cc1 | 0.178 µM | – | 0.228 µM | 9.6 µM | – | –
5 | – | 0.0087 µM | COc1ncc(-c2ccc3nccc(-c4ccc(Cn5cncn5)cc4)c3c2)cc1NS(=O)(=O)c1ccc(F)cc1F | 0.016 µM | – | – | – | 18 | –
6 | – | 0.0531 µM | COc1ncc(-c2ccc3nccc(-c4ccc(Cn5cccn5)cc4)c3c2)cc1NS(=O)(=O)c1ccc(F)cc1F | 0.0308 µM | 1.6 µM | – | – | – | –
7 | – | 6.59 µM | COc1ncc(-c2ccc3nccc(Cl)c3c2)cc1NS(=O)(=O)c1ccc(F)cc1F | 2.94 µM | > 100 µM | – | – | – | –
8 | – | 0.036 µM | O=S(=O)(Nc1cc(-c2ccc3nccc(-c4ccc(Cn5cncn5)cc4)c3c2)cnc1Cl)c1ccc(F)cc1F | 0.642 µM | – | 0.34 µM | 2.04 µM | – | –
9 | – | 0.0142 µM | COc1ncc(-c2ccc3nccc(-c4ccc(Cn5ccnc5C)cc4)c3c2)cc1NS(=O)(=O)c1ccc(F)cc1F | 0.0102 µM | 0.04 µM | – | – | – | –
10 | – | – | CC[C@@]1(O)C(=O)OCc2c1cc1n(c2=O)Cc2cc3ccccc3nc2-1 [CAMPTOTHECIN] | – | – | – | – | – | 0.0398 µM
11 | – | 4.43 µM | COc1ncc(-c2ccc3nccc(N4CCOCC4)c3c2)cc1NS(=O)(=O)c1ccc(F)cc1F | 2.4 µM | > 100 µM | – | – | – | –
12 | – | 0.0326 µM | COc1ncc(-c2ccc3nccc(-c4ccc(Cn5ccnc5)cc4)c3c2)cc1NS(=O)(=O)c1ccc(F)cc1F | 0.0308 µM | 0.6 µM | – | – | – | –
13 | – | 0.041 µM | CN(CCO)Cc1ccc(-c2ccnc3ccc(-c4cnc(Cl)c(NS(=O)(=O)c5ccc(F)cc5F)c4)cc23)cc1 | 0.121 µM | – | 0.337 µM | 2.88 µM | – | –
14 | – | 0.026 µM | COc1ncc(-c2ccc3nccc(-c4ccc(Cn5cncn5)cc4)c3c2)cc1NS(=O)(=O)c1ccc(F)cc1 | 0.033 µM | – | 0.283 µM | 12.7 µM | – | –
15 | – | 0.0341 µM | COc1ncc(-c2ccc3nccc(-c4ccc(CN5CCCCC5)cc4)c3c2)cc1NS(=O)(=O)c1ccc(F)cc1F | 0.0155 µM | 0.032 µM | – | – | – | –
16 | – | 0.0247 µM | COc1ncc(-c2ccc3nccc(-c4ccc(CN5CCN(C(C)C)CC5)cc4)c3c2)cc1NS(=O)(=O)c1ccc(F)cc1F | 0.0019 µM | 0.468 µM | – | – | – | –

Row | IC50 [2] | IC50 (cells) | SMILES | IC50 [1] | IC50 [3] | IC50 [4] | IC50 [5] | Ratio IC50 (HCT-116) | GI50 [6]
17 | 0.0025 µM | – | COc1ncc(-c2ccc3nccc(-c4ccc(CN(C)CCN(C)C)cc4)c3c2)cc1NS(=O)(=O)c1ccc(F)cc1F | 0.013 µM | 0.254 µM | – | – | – | –
18 | – | 0.024 µM | CN(CCO)Cc1ccc(-c2ccnc3ccc(-c4cnc(Cl)c(NS(=O)(=O)c5ccc(F)cc5)c4)cc23)cc1 | 0.015 µM | – | 0.26 µM | 1.91 µM | – | –
19 | – | 0.041 µM | O=S(=O)(Nc1cc(-c2ccc3nccc(-c4ccc(CN5CCOCC5)cc4)c3c2)cnc1Cl)c1ccc(F)cc1 | 0.053 µM | – | 2.58 µM | 7.74 µM | – | –
20 | – | 0.025 µM | COc1ncc(-c2ccc3nccc(-c4ccc(CN(C)CCO)cc4)c3c2)cc1NS(=O)(=O)c1ccc(F)cc1 | 0.022 µM | – | 0.21 µM | 1.85 µM | – | –
21 | – | 0.03 µM | COc1ncc(-c2ccc3nccc(-c4ccc(CN5CCOCC5)cc4)c3c2)cc1NS(=O)(=O)c1ccc(F)cc1 | 0.017 µM | – | 1.97 µM | 27.2 µM | – | –
22 | – | – | CC(=O)O[C@H]1C(=O)[C@@]2(C)[C@H]([C@H](OC(=O)c3ccccc3)[C@]3(O)C[C@H](OC(=O)[C@H](O)[C@@H](NC(=O)c4ccccc4)c4ccccc4)C(C)=C1C3(C)C)[C@]1(OC(C)=O)CO[C@@H]1C[C@@H]2O [PACLITAXEL] | – | – | – | – | – | 0.0315 µM
23 | – | 0.0439 µM | COc1ncc(-c2ccc3nccc(-c4ccc(CN5CCN(C)CC5)cc4)c3c2)cc1NS(=O)(=O)c1ccc(F)cc1F | 0.0133 µM | 0.336 µM | – | – | – | –
24 | – | 0.0038 µM | COc1ncc(-c2ccc3nccc(-c4ccc(CN(CCO)CCO)cc4)c3c2)cc1NS(=O)(=O)c1ccc(F)cc1F | 0.0028 µM | 0.143 µM | – | – | – | –
25 | – | 0.024 µM | COc1ncc(-c2ccc3nccc(-c4ccc(CN(C)C)cc4)c3c2)cc1NS(=O)(=O)c1ccc(F)cc1 | 0.025 µM | – | 0.35 µM | 3.02 µM | – | –
26 | – | 0.0217 µM | COc1ncc(-c2ccc3nccc(-c4ccc(CN5CCN(CCO)CC5)cc4)c3c2)cc1NS(=O)(=O)c1ccc(F)cc1F | 0.0248 µM | 0.0212 µM | – | – | – | –
27 | – | 0.005 µM | CCN(CC)Cc1ccc(-c2ccnc3ccc(-c4cnc(OC)c(NS(=O)(=O)c5ccc(F)cc5F)c4)cc23)cc1 | 0.022 to 0.0221 µM | 4.89 µM | – | – | – | –
28 | – | 0.051 µM | O=S(=O)(Nc1cc(-c2ccc3nccc(-c4ccc(CN5CCOCC5)cc4)c3c2)cnc1Cl)c1ccc(F)cc1F | 0.024 µM | – | 2.43 µM | 2.31 µM | – | –
29 | – | 3.32 µM | COc1ncc(-c2ccc3nccc(N4CCCC4)c3c2)cc1NS(=O)(=O)c1ccc(F)cc1F | 3.41 µM | 6.69 µM | – | – | – | –
30 | – | 0.0188 µM | COc1ncc(-c2ccc3nccc(-c4ccc(CN5CCCC5)cc4)c3c2)cc1NS(=O)(=O)c1ccc(F)cc1F | 0.0375 µM | 0.159 µM | – | – | – | –
31 | – | 0.024 µM | CN(C)Cc1ccc(-c2ccnc3ccc(-c4cnc(Cl)c(NS(=O)(=O)c5ccc(F)cc5F)c4)cc23)cc1 | 0.251 µM | – | 0.053 µM | 3.86 µM | – | –
32 | – | 0.0047 µM | COc1ncc(-c2ccc3nccc(-c4ccc(CN(C)CCO)cc4)c3c2)cc1NS(=O)(=O)c1ccc(F)cc1F | 0.02 µM | – | – | – | >30 | –
